Test results as given in the supplement of paper PMC11451515.

Tests used:
Details in all cases: 48 h
NOMO1 [1] = assay: cell viability relative to DMSO control; higher = less cytotoxic
Procedure, shortened: (§1)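 Leukemia cells (NOMO1 or SEM, 500 cells/well; P12-Ichikawa, 1000 cells/well) were seeded in 5 μl in 1536-well plates after at least four passages of adaptation to each medium. They received library compounds in DMSO by pin dosing, 11 threefold points from 47 μM to 0.79 nM. Luminescence with CellTiter-Glo One was read after 48 h at 37°C. Viability is stated per plate relative to DMSO wells, with cell-free wells as background.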

P12-Ichikawa [2] = assay: as above
Procedure, shortened: as §1

SEM cells [3] = assay: as above
Procedure, shortened: as §1

NOMO1 [4] = assay: AUC of viability dose-response curve (% viability x log10 dose units); higher = less sensitive
Procedure, shortened: (§2)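 Leukemia cells adapted to each medium (500 or 1000 cells/well, 1536-well plates) were exposed to library compounds in DMSO for 48 h at 37°C at 11 threefold doses, 47 μM to 0.79 nM. Luminescence by CellTiter-Glo One was normalised per plate to DMSO and cell-free wells, then fitted with a four-parameter log-logistic curve on log10 dose. Curves above full viability were scaled and quality-control failures removed before area under the curve was integrated by trapezoidal rule.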

P12-Ichikawa [5] = assay: as above
Procedure, shortened: as §2

SEM cells [6] = assay: as above
Procedure, shortened: as §2

C/C(O)=C(\C#N)C(=O)Nc1cc(Br)ccc1Br
cell viability [%]
Details	NOMO1 [1]	P12-Ichikawa [2]	SEM cells [3]
HPLM + 10% dialyzed FBS, 0.000781 µM	111	105	108
HPLM + 10% dialyzed FBS, 0.00234 µM	119	110	102
HPLM + 10% dialyzed FBS, 0.00702 µM	98.3	114	112
HPLM + 10% dialyzed FBS, 0.0211 µM	115	109	107
HPLM + 10% dialyzed FBS, 0.0632 µM	88.3	109	112
HPLM + 10% dialyzed FBS, 0.19 µM	104	109	110
HPLM + 10% dialyzed FBS, 0.569 µM	98.3	108	107
HPLM + 10% dialyzed FBS, 1.71 µM	96.6	105	109
HPLM + 10% dialyzed FBS, 5.12 µM	98.8	99.6	108
HPLM + 10% dialyzed FBS, 15.4 µM	90.7	97.9	32.2
HPLM + 10% dialyzed FBS, 46.1 µM	78.3	95	75.4
RPMI 5 mM glucose + 10% FBS, 0.000781 µM	96.4	100	122
RPMI 5 mM glucose + 10% FBS, 0.00234 µM	93.7	109	104
RPMI 5 mM glucose + 10% FBS, 0.00702 µM	94.6	104	104
RPMI 5 mM glucose + 10% FBS, 0.0211 µM	99.2	108	106
RPMI 5 mM glucose + 10% FBS, 0.0632 µM	94	105	119
RPMI 5 mM glucose + 10% FBS, 0.19 µM	92.5	107	112
RPMI 5 mM glucose + 10% FBS, 0.569 µM	96.2	100	99
RPMI 5 mM glucose + 10% FBS, 1.71 µM	90	101	113
RPMI 5 mM glucose + 10% FBS, 5.12 µM	83	104	106
RPMI 5 mM glucose + 10% FBS, 15.4 µM	88	96.4	32.8
RPMI 5 mM glucose + 10% FBS, 46.1 µM	82.3	86.5	84.9
RPMI 5 mM glucose + 10% dialyzed FBS, 0.000781 µM	95.3	106	112
RPMI 5 mM glucose + 10% dialyzed FBS, 0.00234 µM	96	113	110
RPMI 5 mM glucose + 10% dialyzed FBS, 0.00702 µM	102	114	108
RPMI 5 mM glucose + 10% dialyzed FBS, 0.0211 µM	102	109	118
RPMI 5 mM glucose + 10% dialyzed FBS, 0.0632 µM	94.1	106	107
RPMI 5 mM glucose + 10% dialyzed FBS, 0.19 µM	102	104	108
RPMI 5 mM glucose + 10% dialyzed FBS, 0.569 µM	90	103	105
RPMI 5 mM glucose + 10% dialyzed FBS, 1.71 µM	83.4	116	111
RPMI 5 mM glucose + 10% dialyzed FBS, 5.12 µM	82.5	96.3	99
RPMI 5 mM glucose + 10% dialyzed FBS, 15.4 µM	93.3	94.5	32
RPMI 5 mM glucose + 10% dialyzed FBS, 46.1 µM	78	94.5	70.5

AUC of viability dose-response curve
Details	NOMO1 [4]	P12-Ichikawa [5]	SEM cells [6]
HPLM + 10% dialyzed FBS	420	462	441
RPMI 5 mM glucose + 10% FBS	439	469	442
RPMI 5 mM glucose + 10% dialyzed FBS	442	449	434

O=C(Nc1ncc(-c2cc(C(F)F)nn2-c2c(Cl)cccc2Cl)s1)C1CC1
cell viability [%]
Details	NOMO1 [1]	P12-Ichikawa [2]	SEM cells [3]
HPLM + 10% dialyzed FBS, 0.000781 µM	120	116	101
HPLM + 10% dialyzed FBS, 0.00234 µM	107	122	113
HPLM + 10% dialyzed FBS, 0.00702 µM	120	123	102
HPLM + 10% dialyzed FBS, 0.0211 µM	117	131	128
HPLM + 10% dialyzed FBS, 0.0632 µM	132	130	121
HPLM + 10% dialyzed FBS, 0.19 µM	138	129	124
HPLM + 10% dialyzed FBS, 0.569 µM	137	126	118
HPLM + 10% dialyzed FBS, 1.71 µM	99.1	14.2	47
HPLM + 10% dialyzed FBS, 5.12 µM	44.4	18.3	20.5
HPLM + 10% dialyzed FBS, 15.4 µM	62.8	11	21.9
HPLM + 10% dialyzed FBS, 46.1 µM	49	14.6	8.41
RPMI 5 mM glucose + 10% FBS, 0.000781 µM	–	–	112
RPMI 5 mM glucose + 10% FBS, 0.00234 µM	–	–	106
RPMI 5 mM glucose + 10% FBS, 0.00702 µM	–	–	123
RPMI 5 mM glucose + 10% FBS, 0.0211 µM	–	–	131
RPMI 5 mM glucose + 10% FBS, 0.0632 µM	–	–	127
RPMI 5 mM glucose + 10% FBS, 0.19 µM	–	–	137
RPMI 5 mM glucose + 10% FBS, 0.569 µM	–	–	124
RPMI 5 mM glucose + 10% FBS, 1.71 µM	–	–	31.5
RPMI 5 mM glucose + 10% FBS, 5.12 µM	–	–	14.8
RPMI 5 mM glucose + 10% FBS, 15.4 µM	–	–	14.8
RPMI 5 mM glucose + 10% FBS, 46.1 µM	–	–	4.67
RPMI 5 mM glucose + 10% dialyzed FBS, 0.000781 µM	–	–	115
RPMI 5 mM glucose + 10% dialyzed FBS, 0.00234 µM	–	–	103
RPMI 5 mM glucose + 10% dialyzed FBS, 0.00702 µM	–	–	99.9
RPMI 5 mM glucose + 10% dialyzed FBS, 0.0211 µM	–	–	137
RPMI 5 mM glucose + 10% dialyzed FBS, 0.0632 µM	–	–	127
RPMI 5 mM glucose + 10% dialyzed FBS, 0.19 µM	–	–	123
RPMI 5 mM glucose + 10% dialyzed FBS, 0.569 µM	–	–	130
RPMI 5 mM glucose + 10% dialyzed FBS, 1.71 µM	–	–	37.2
RPMI 5 mM glucose + 10% dialyzed FBS, 5.12 µM	–	–	17.8
RPMI 5 mM glucose + 10% dialyzed FBS, 15.4 µM	–	–	22
RPMI 5 mM glucose + 10% dialyzed FBS, 46.1 µM	–	–	5.55

AUC of viability dose-response curve
Details	NOMO1 [4]	P12-Ichikawa [5]	SEM cells [6]
HPLM + 10% dialyzed FBS	398	329	347
RPMI 5 mM glucose + 10% FBS	381	326	333
RPMI 5 mM glucose + 10% dialyzed FBS	370	345	340
